Laboratory results as given in EP0603240B1, “SAFENING HERBICIDAL PYRAZOLYLSULFONYLUREAS” (priority 1991, dated 1993).

Columns and labels:
Format in all cases: in vivo
[1] = test system: corn; experiment: Example 18, Procedure II: Herbicide No. 1 + ERADICANE (EPTC + R-25788) with auxiliary antidotes
Procedure: (§1) Containers were filled and compacted with a fumigated silt loam top soil to a depth of about 1.3 cm from the top of the container. A first container was designated as an untreated control, a second container was designated as a herbicide control, and a third container was designated as a herbicide + antidote test container. Each of the containers was seeded with a crop species. A measured amount of herbicide dispersed or dissolved in acetone was applied to a measured quantity of soil. To this same quantity of soil treated with herbicide, there was added a measured amount of antidote dispersed or dissolved in acetone. The quantity of soil treated with the herbicide and antidote was thoroughly mixed to incorporate the herbicide and antidote in the soil uniformly. The seed bed in the third container of soil was covered with the soil treated with the herbicide and antidote and the container was leveled. For each test series, the seed beds of the first and second containers were likewise covered by soil layers. the cover layer of the first container was not treated with herbicide or antidote.
(§2) The containers were then placed on a bench in a greenhouse and sub-irrigated as required for the duration of the test. […] Plant response is measured in terms of percent injury. Antidote efficacy is indicated as the difference in plant injury by the herbicide(s) without the antidote and with the antidote.
(§3) This procedure is the same as Procedure I, but modified in the manner that after incorporation of the chemicals (herbicide and antidote) the containers with the covered seedbed were treated with an initial overhead irrigation equivalent to 0.6 cm rainfall, then subsequently sub-irrigated as required on greenhouse benches.
(§4) In the test reported in this example, the herbicidal composition was similar to that used in Example 16 in that Herbicide No. 1 was combined with EPTC (Herbicide No. 4) as a co-herbicide and the antidotes included Nos. 1, 2, 7, 13 and 15. However, in this test the EPTC was introduced as a formulation of ERADICANE (EPTC + the antidote R-25788, i.e., Antidote No. 1) at an application rate of 8.96 kg/ha. Thus, in this test two antidotes were present, viz. R-25788 and one of the auxilliary antidotes, No. 2, 13 and 15.
Test procedures were those of Procedure II above.

[2] = test system: barnyardgrass (Echinochloa crusgalli); experiment: Example 19, Procedure II: Herbicide No. 1 + ERADICANE EXTRA with added antidotes
Procedure: as §1, §2, §3
(§5) In the series of greenhouse tests described below, for routine screening purposes the herbicide/antidote compositions were tested in crop/weed combinations involving corn as the crop and either or both of the weeds barnyardgrass (Echinochloa crusgalli), a monocotyledonous weed, and velvetleaf (Abutilon theophrasti), a dicotyledonous weed. In the tables below, these weeds are indicated by the symbols "BYG" and "VL", respectively.
as §4
(§6) The test reported in this example was performed in the same manner and with the same antidotes used in Example 18, the only difference being the substitution of the commercial herbicidal product ERADICANE® EXTRA for ERADICANE®. ERADICANE EXTRA is a formulation containing both an antidote, i.e., R-29148 (Antidote No. 5 herein), and an extender, dietholate.

[3] = test system: velvetleaf (Abutilon theophrasti); experiment: as above
Procedure: as §1, §2, §3, §5, §4, §6

[4] = test system: barnyardgrass (Echinochloa crusgalli); experiment: Example 21, Procedure II: Herbicide No. 1 + SUTAN PLUS (butylate + antidote) with antidotes
Procedure: as §1, §2, §3, §5
(§7) In this example, tests were conducted as in the preceding Examples 18-20, except here the co-herbicidal component was SUTAN® PLUS, a commercial product comprising as the active herbicidal ingredient the compound butylate (Herbicide No. 10) and an antidote […] (Antidote No. 1). Again, the antidotal compounds herein were Nos. 1, 2, 7, 13 and 15. Procedure II was used.

[5] = test system: velvetleaf (Abutilon theophrasti); experiment: as above
Procedure: as §1, §2, §3, §5, §7

[6] = test system: barnyardgrass (Echinochloa crusgalli); experiment: Example 6, Procedure II: Herbicide No. 1 + alachlor (No. 7) with antidotes
Procedure: as §1, §2, §3, §5
(§8) This example was designed to investigate the antidotal efficacy of a plurality of antidotal compounds against a composition comprising Herbicide No. 1 in combination with Herbicide No. 7 (alachlor). The antidotal compounds used herein were Nos. 1, 2, 7, 13 and 15.
(§9) In this example, Procedure II described above was followed. The data from the tests in this example is shown in Table 6 and represents averages of duplicate replications.

[7] = test system: velvetleaf (Abutilon theophrasti); experiment: as above
Procedure: as §1, §2, §3, §5, §8, §9

[8] = test system: barnyardgrass (Echinochloa crusgalli); experiment: Example 7, Procedure II: Herbicide No. 1 + metolachlor (No. 12) with antidotes
Procedure: as §1, §2, §3, §5, §9
(§10) The tests in this example followed the same procedure and antidotes used in Example 6. However, Herbicide No. 12 (metolachlor) was used as the co-herbicide with Herbicide No. 1.

[9] = test system: velvetleaf (Abutilon theophrasti); experiment: as above
Procedure: as §1, §2, §3, §5, §9, §10

[10] = test system: barnyardgrass (Echinochloa crusgalli); experiment: Example 10, Procedure II: Herbicide No. 1 + propachlor (No. 5) with antidotes
Procedure: as §1, §2, §3, §5
(§11) In this test, the safening effect of various antidotes on the herbicidal combination of Herbicide No. 1 and another α-chloroacetanilide co-herbicide, propachlor, (Herbicide No. 5) was investigated. Propachlor is the active ingredient in the commercial herbicide RAMROD®. Procedure II was also used in this test as in the preceding example.

[11] = test system: velvetleaf (Abutilon theophrasti); experiment: as above
Procedure: as §1, §2, §3, §5, §11

[12] = Herbicide No.1 0.56 kg/ha alone
[13] = Herbicide No.1 1.12 kg/ha alone
[14] = Herbicide No.1 0.56 kg/ha + ERADICANE EXTRA 8.96 kg/ha, no added antidote
[15] = Herbicide No.1 1.12 kg/ha + ERADICANE EXTRA 8.96 kg/ha, no added antidote
[16] = Herbicide No.1 0.56 kg/ha + SUTAN + 8.96 kg/ha, no added antidote
[17] = Herbicide No.1 1.12 kg/ha + SUTAN + 8.96 kg/ha, no added antidote
[18] = Herbicide No.1 0.14 + No.7 4.48 kg/ha + antidote 2.24 kg/ha
[19] = Herbicide No.1 0.14 + No.7 4.48 kg/ha + antidote 8.96 kg/ha
[20] = Herbicide No.1 0.56 + No.7 4.48 kg/ha + antidote 2.24 kg/ha
[21] = Herbicide No.1 0.56 + No.7 4.48 kg/ha + antidote 8.96 kg/ha
[22] = Herbicide No.1 0.14 + No.12 3.36 kg/ha + antidote 2.24 kg/ha
[23] = Herbicide No.1 0.14 + No.12 3.36 kg/ha + antidote 8.96 kg/ha
[24] = Herbicide No.1 0.56 + No.12 3.36 kg/ha + antidote 2.24 kg/ha
[25] = Herbicide No.1 0.56 + No.12 3.36 kg/ha + antidote 8.96 kg/ha
[26] = Herbicide No.1 0.14 kg/ha + Herbicide No.5 4.48 kg/ha, antidote rate 2.24 kg/ha
[27] = Herbicide No.1 0.14 kg/ha + Herbicide No.5 4.48 kg/ha, antidote rate 8.96 kg/ha
[28] = Herbicide No.1 0.56 kg/ha + Herbicide No.5 4.48 kg/ha, antidote rate 2.24 kg/ha
[29] = Herbicide No.1 0.56 kg/ha + Herbicide No.5 4.48 kg/ha, antidote rate 8.96 kg/ha
[30] = Herbicide No.1 0.56 kg/ha + ERADICANE EXTRA 8.96 kg/ha, antidote 2.24 kg/ha
[31] = Herbicide No.1 0.56 kg/ha + ERADICANE EXTRA 8.96 kg/ha, antidote 8.96 kg/ha
[32] = Herbicide No.1 1.12 kg/ha + ERADICANE EXTRA 8.96 kg/ha, antidote 2.24 kg/ha
[33] = Herbicide No.1 1.12 kg/ha + ERADICANE EXTRA 8.96 kg/ha, antidote 8.96 kg/ha
[34] = Herbicide No.1 0.56 kg/ha + SUTAN + 8.96 kg/ha, antidote 2.24 kg/ha
[35] = Herbicide No.1 0.56 kg/ha + SUTAN + 8.96 kg/ha, antidote 8.96 kg/ha
[36] = Herbicide No.1 1.12 kg/ha + SUTAN + 8.96 kg/ha, antidote 2.24 kg/ha
[37] = Herbicide No.1 1.12 kg/ha + SUTAN + 8.96 kg/ha, antidote 8.96 kg/ha
[38] = Herbicide No.1 0.14 + No.7 4.48 kg/ha, no antidote
[39] = Herbicide No.1 0.14 kg/ha alone
[40] = Herbicide No.1 0.56 + No.7 (alachlor) 4.48 kg/ha, no antidote, average of duplicates
[41] = Herbicide No.1 0.14 + No.12 3.36 kg/ha, no antidote
[42] = Herbicide No.1 0.14 + No.12 3.36 kg/ha, no antidote (second such line, r25)
[43] = Herbicide No.1 0.56 + No.12 3.36 kg/ha, no antidote (second such line, r24)
[44] = Herbicide No.1 0.56 + No.12 (metolachlor) 3.36 kg/ha, no antidote
[45] = Herbicide No.1 0.14 kg/ha alone, no antidote
[46] = Herbicide No.1 0.56 kg/ha alone, no antidote

COC(=O)c1c(Cl)nn(C)c1S(=O)(=O)NC(=O)Nc1nc(OC)cc(OC)n1 [No.1]
% Injury Corn ([1]; Herbicide No.1 0.56 kg/ha + ERADICANE 8.96 kg/ha, no added antidote): 25% | % Injury Corn [1, 12]: 30% | % Injury Corn ([1]; Herbicide No.1 1.12 kg/ha + ERADICANE 8.96 kg/ha, no added antidote): 20% | % Injury Corn [1, 13]: 25% | % Injury BYG [2, 14]: 95% | % Injury BYG [2, 12]: 30% | % Injury BYG [2, 15]: 95% | % Injury BYG [2, 13]: 70% | % Injury VL [3, 14]: 80% | % Injury VL [3, 12]: 50% | % Injury VL [3, 15]: 85% | % Injury VL [3, 13]: 65% | % Injury BYG [4, 16]: 20% | % Injury BYG [4, 12]: 10% | % Injury BYG [4, 17]: 50% | % Injury BYG [4, 13]: 10% | % Injury VL [5, 16]: 60% | % Injury VL [5, 12]: 50% | % Injury VL [5, 17]: 70% | % Injury VL [5, 13]: 65%

CC1(C(Cl)Cl)OCCO1 [compound 13]
% Injury BYG [6, 18]: 100% | % Injury BYG [6, 19]: 100% | % Injury BYG [6, 20]: 100% | % Injury BYG [6, 21]: 100% | % Injury VL [7, 18]: 75% | % Injury VL [7, 19]: 65% | % Injury VL [7, 20]: 90% | % Injury VL [7, 21]: 90% | % Injury BYG [8, 22]: 100% | % Injury BYG [8, 23]: 100% | % Injury BYG [8, 24]: 100% | % Injury BYG [8, 25]: 100% | % Injury VL [9, 22]: 75% | % Injury VL [9, 23]: 80% | % Injury VL [9, 24]: 85% | % Injury VL [9, 25]: 85% | % Injury BYG [10, 26]: 98% | % Injury BYG [10, 27]: 97% | % Injury BYG [10, 28]: 99% | % Injury BYG [10, 29]: 98% | % Injury VL [11, 26]: 70% | % Injury VL [11, 27]: 70% | % Injury VL [11, 28]: 80% | % Injury VL [11, 29]: 75% | % Injury Corn ([1]; Herbicide No.1 0.56 kg/ha + ERADICANE 8.96 kg/ha, antidote 2.24 kg/ha): 10% | % Injury Corn ([1]; Herbicide No.1 0.56 kg/ha + ERADICANE 8.96 kg/ha, antidote 8.96 kg/ha): 20% | % Injury Corn ([1]; Herbicide No.1 1.12 kg/ha + ERADICANE 8.96 kg/ha, antidote 2.24 kg/ha): 10% | % Injury Corn ([1]; Herbicide No.1 1.12 kg/ha + ERADICANE 8.96 kg/ha, antidote 8.96 kg/ha): 40% | % Injury BYG [2, 30]: 90% | % Injury BYG [2, 31]: 90% | % Injury BYG [2, 32]: 90% | % Injury BYG [2, 33]: 95% | % Injury VL [3, 30]: 65% | % Injury VL [3, 31]: 70% | % Injury VL [3, 32]: 80% | % Injury VL [3, 33]: 85% | % Injury BYG [4, 34]: 40% | % Injury BYG [4, 35]: 50% | % Injury BYG [4, 36]: 70% | % Injury BYG [4, 37]: 70% | % Injury VL [5, 34]: 55% | % Injury VL [5, 35]: 40% | % Injury VL [5, 36]: 70% | % Injury VL [5, 37]: 70%

COC(=O)c1c(Cl)nn(C)c1S(=O)(=O)NC(=O)Nc1nc(OC)cc(OC)n1 [Herbicide No. 1]
% Injury BYG [6, 38]: 100% | % Injury BYG [6, 39]: 20% | % Injury BYG [6, 40]: 100% | % Injury BYG [6, 12]: 70% | % Injury VL [7, 38]: 70% | % Injury VL [7, 39]: 40% | % Injury VL [7, 40]: 85% | % Injury VL [7, 12]: 60% | % Injury BYG [8, 41]: 100% | % Injury BYG [8, 42]: 35% | % Injury BYG [8, 43]: 75% | % Injury BYG [8, 44]: 100% | % Injury VL [9, 41]: 70% | % Injury VL [9, 42]: 60% | % Injury VL [9, 43]: 75% | % Injury VL [9, 44]: 85% | % Injury BYG [10, 45]: 75% | % Injury BYG [10, 46]: 80% | % Injury VL [11, 45]: 70% | % Injury VL [11, 46]: 75%
